In assay [1] the target is T1, Retinoic acid receptor RXR-alpha (Homo sapiens, UniProt P19793).
T1 sequence (P19793 whole entry): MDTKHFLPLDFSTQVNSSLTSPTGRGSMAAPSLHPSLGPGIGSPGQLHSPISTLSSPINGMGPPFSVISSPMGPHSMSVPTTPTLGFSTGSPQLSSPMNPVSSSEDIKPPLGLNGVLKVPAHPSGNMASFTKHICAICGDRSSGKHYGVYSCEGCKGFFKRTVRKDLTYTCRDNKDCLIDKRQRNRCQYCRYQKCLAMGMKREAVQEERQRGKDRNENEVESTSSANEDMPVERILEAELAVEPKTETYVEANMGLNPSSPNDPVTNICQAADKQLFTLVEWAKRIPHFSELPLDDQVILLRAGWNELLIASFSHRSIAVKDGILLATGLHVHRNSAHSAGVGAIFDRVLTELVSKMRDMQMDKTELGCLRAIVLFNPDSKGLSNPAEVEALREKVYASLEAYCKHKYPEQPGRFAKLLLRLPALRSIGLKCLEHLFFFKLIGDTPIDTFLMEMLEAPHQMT
In words: (§1) Antagonist activity at RXRalpha expressed in COS1 cells assessed as inhibition of NEt-TMN-induced luciferase activity after 18 hrs by reporter gene assay relative to LGD1069. The class given is functional, cell-based, COS-1. For orientation: A reporter such as luciferase makes a cellular process visible.

Assay [2] concerns the target T2, Retinoic acid receptor RXR-alpha (Homo sapiens) (UniProt P19793).
T2 sequence (whole entry): T1 sequence (P19793 whole entry)
The description is as §1. The note with it: COS-1. The class given is functional, cell-based.

For assay [3], the target named is T1, Retinoic acid receptor RXR-alpha. In words: Antagonist activity at RXRalpha expressed in COS1 cells assessed as inhibition of NEt-3IP-induced luciferase activity after 18 hrs by reporter gene assay relative to LGD1069. The class given is functional, cell-based, COS-1.

The structures appear in SMILES notation. Activity calls are given as the source filed them. No cut-off for these calls is given here.

Usually Kb stands for the affinity of an antagonist, worked out from how it opposes an agonist. As for `CCCCCCOc1cc2c(cc1N(C)c1ncc(C(=O)O)cn1)C(C)(C)CCC2(C)C`, the Kb in assay [1] came to 77.6 nM. Besides, the outcome in assay [2] was Active.
As for `CCN(c1ccc(C(=O)O)cn1)c1cc(OCC(C)C)c(C(C)C)cc1-c1ccccc1`, in assay [2], the outcome was inactive.
As for `CCN(c1ccc(C(=O)O)cn1)c1cc(OCC(C)C)c(C(C)C)cc1Nc1ccccc1`, the result in assay [2] was Active.
For `CCN(c1ccc(C(=O)O)cn1)c1cc(OCC(C)C)c(C(C)C)cc1/C=C/c1ccccc1`, the Kb in assay [3] was 5.5 nM; in assay [1] it was 5.89 nM. For the same compound, the outcome in assay [2] was Active.

For the origin of these results see ChEMBL document CHEMBL2029300, “Discovery of a Potent Retinoid X Receptor Antagonist Structurally Closely Related to RXR Agonist NEt-3IB” (ACS Med Chem Lett, 2011).
